From patent US20200325505A1, “FILAMENTOUS FUNGI CAPABLE OF PRODUCING VERY LONG CHAIN FATTY ACIDS” (UT-Battelle, LLC, priority 2019, published 2020)
Where two headings read alike, the source gives them in different places. Residues, ends and D or L forms follow the SMILES beside them.

System: Mortierella elongata AG77
Experiment: Carbon source utilisation in Biolog 96-well plates, formazan formation after tetrazolium addition
Format: cell-based
Settings: for Metabolized: Metabolized = more formazan formation than a control containing no carbon source, observed visually at 2 h, 24 h, 148 h; for Carbon sources that Mortierella elongata AG77 can metabolize: summary of Table 3
Description: Two 300 mL volumes of growth medium comprising 1 g/L KH2PO4, 1 g/L MgSO4 7H2O, 0.1 g/L CaCl2, 0.02 g/L FeNaEDTA, 0.1 g/L NaCl, and either 1 g/L NH4NO3 or 20 g/L sucrose were prepared. Acidity was adjusted to 5.5 using NaOH and volumes of growth medium were autoclaved 30 min at 121° C. to sterilize. Aliquots of 200 μL of carbon-free medium or nitrogen-free medium were pipetted into each well of a set of 96-well plates previously prepared with lyophilized putative carbon or nitrogen sources (Biolog Inc., Hayward, Calif.). Inocula were prepared by perforating a culture of Mortierella elongata AG77 grown on 20 g/L potato dextrose agar with a 3 mm diameter cork borer and separating the surface mycelial mat from the solid growth medium using tweezers. Each well was inoculated with one inoculum. Cultures were incubated at 21° C. for 24 hours to allow metabolic changes to stabilize, and then 100 μL of 3 g/L tetrazolium chloride in water was added to each well. Formazan formation was observed visually at 2 h, 24 h, and 148 h.
Conclusions were based on rate and intensity of formazan formation using the 3-4,5-dimethylthiazol-2-yl)-2,5-diphenyltetrazolium bromide (MTT) assay. “Metabolized” indicates more formazan formation than a control containing no carbon source, and “Toxic” indicates less formazan formation than a control containing no carbon source. “Metabolized” and “Toxic” assignments are mutually exclusive. In this example, a compound may be “Metabolized” or “Toxic,” but not both.

[1] = compound as carbon source, Toxic = less formazan formation than a control containing no carbon source

| Compound | Toxic | Metabolized (compound as carbon source) | Toxic [1] | Carbon sources that Mortierella elongata AG77 can metabolize |
| --- | --- | --- | --- | --- |
| O=C(CO)[C@@H](O)[C@@H](O)[C@H](O)CO [D-Tagatose] | no | no | – | – |
| CO[C@H]1O[C@H](CO)[C@@H](O)[C@H](O)[C@H]1O [a-Methyl-D-Glucoside] | – | yes | no | can metabolize |
| O=C1O[C@@H]([C@H](O)CO)[C@H](O)[C@H]1O [D-Galactonic Acid-γ-Lactone] | – | yes | no | can metabolize |
| O=C(O)CC(O)C(=O)O (racemic) [D,L-Malic Acid] | – | no | no | – |
| C[C@@H](O)[C@H](O)[C@H](O)[C@@H](O)C=O [D-Fucose] | – | yes | no | can metabolize |
| O=C1CCC(C(=O)O)O1 (stereo not drawn) [α-Hydroxy Glutaric Acid-γ-Lactone] | – | no | no | – |
| COC1OCC(O)C(O)C1O [β-Methyl-D-Xyloside] | – | no | no | – |
| O=C(CO)[C@@H](O[C@H]1O[C@H](CO)[C@@H](O)[C@H](O)[C@H]1O)[C@H](O)[C@H](O)CO [Turanose] | – | no | no | – |
| OC[C@@]12OC[C@@H](O1)[C@@H](O)[C@@H](O)[C@@H]2O [Sedoheptulosan] | – | no | no | – |
| O=C[C@H](O)[C@@H](O)[C@H](O)CO [D-Xylose] | no | no | – | – |
| Gelatin | no | – | – | – |
| NCC(=O)N[C@@H](CC(=O)O)C(=O)O [Glycyl-L-Aspartic Acid] (H-Gly-Asp-OH) | – | yes | no | can metabolize |
| COC(=O)C(C)=O [Methyl Pyruvate] | – | yes | no | can metabolize |
| O=C(CO)[C@@H](O)[C@H](O)[C@@H](O)C(=O)O [5-Keto-D-Gluconic Acid] | – | no | no | – |
| CCC(O)C(=O)O (stereo not drawn) [α-Hydroxy Butyric Acid] | – | no | no | – |
| O=C[C@H](O)[C@@H](O)[C@H](O)[C@H](O)C(=O)O [D-Glucuronic Acid] | no | yes | – | can metabolize |
| O=C[C@H](O)[C@@H](O)[C@@H](O)[C@H](O)CO [D-Galactose] | no | no | – | – |
| OC[C@H]1O[C@H](OC[C@H]2O[C@H](O[C@]3(CO)O[C@H](CO)[C@@H](O)[C@@H]3O)[C@H](O)[C@@H](O)[C@@H]2O)[C@H](O)[C@@H](O)[C@H]1O [D-Raffinose] | no | yes | – | can metabolize |
| O=P(O)(O)OCC(O)CO (racemic) [D,L-α-Glycerol- Phosphate] | – | no | no | – |
| O=C(O)C(=O)C(C(=O)O)C(O)C(=O)O (stereo not drawn) [Oxalomalic Acid] | no | no | – | – |

| Compound | Toxic | Metabolized (compound as carbon source) | Toxic [1] | Carbon sources that Mortierella elongata AG77 can metabolize |
| --- | --- | --- | --- | --- |
| N[C@@H](C(=O)O)[C@@H](O)[C@H](O)[C@H](O)CO [D-Glucosaminic Acid] | – | yes | no | can metabolize |
| C[N+](C)(C)CC(O)CC(=O)[O-] (racemic) [D,L-Carnitine] | – | yes | no | can metabolize |
| CC(O)C(C)O (stereo not drawn) [2,3-Butanediol] | no | no | – | – |
| O=C[C@@H](O)[C@H](O)[C@@H](O)[C@@H](O)CO [L-Glucose] | no | no | – | – |
| CC(=O)N[C@H]1[C@H]([C@H](O)[C@H](O)CO)OC(O)(C(=O)O)C[C@@H]1O (stereo partly drawn) [N-Acetyl-Neuraminic Acid] | – | yes | no | can metabolize |
| Chondroitin Sulfate C | no | – | – | – |
| OC[C@@H](O)C(O)[C@H](O)CO [D-Arabitol] | – | no | no | – |
| COC1OC(CO)C(O)C(O)C1O [α-Methyl-D-Galactoside] | – | yes | no | can metabolize |
| OC[C@H]1O[C@@H]2O[C@H]3[C@H](O)[C@@H](O)[C@@H](O[C@H]4[C@H](O)[C@@H](O)[C@@H](O[C@H]5[C@H](O)[C@@H](O)[C@@H](O[C@H]6[C@H](O)[C@@H](O)[C@@H](O[C@H]7[C@H](O)[C@@H](O)[C@@H](O[C@H]1[C@H](O)[C@H]2O)O[C@@H]7CO)O[C@@H]6CO)O[C@@H]5CO)O[C@@H]4CO)O[C@@H]3CO [α-Cyclodextrin] | – | no | no | – |
| OCC(O)CO [Glycerol] | no | yes | – | can metabolize |
| CC(=O)N[C@H]1[C@@H](O)[C@H](O)[C@@H](CO)O[C@H]1O [N-Acetyl-β-D-Mannosamine] | – | yes | no | can metabolize |
| C[C@H](O)[C@H](O)[C@@H](O)[C@@H](O)C=O [L-Rhamnose] | – | no | no | – |
| CCCC(=O)C(=O)O [α-Keto-Valeric Acid] | – | no | no | – |
| O=C(O)CCCCCCCCC(=O)O [Sebacic Acid] | no | no | – | – |
| O=C(O)[C@@H](O)[C@H](O)[C@H](O)[C@@H](O)C(=O)O [Mucic Acid] | no | no | – | – |
| Pectin | no | – | – | – |
| NC(=O)CCC(=O)O [Succinamic Acid] | – | no | no | – |
| O=C[C@H](O)[C@@H](O)[C@@H](O)[C@H](O)C(=O)O [D-Galacturonic Acid] | no | no | – | – |
| O=C(O)CCCO [γ-Hydroxy Butyric Acid] | – | no | no | – |
| CC(=O)C(=O)O [Pyruvic Acid] | – | no | no | – |

| Compound | Toxic | Metabolized (compound as carbon source) | Toxic [1] | Carbon sources that Mortierella elongata AG77 can metabolize |
| --- | --- | --- | --- | --- |
| Dextrin | no | – | – | – |
| O=C(O)[C@H](O)[C@@H](O)C(=O)O [L-Tartaric Acid] | – | no | – | – |
| OC[C@H]1O[C@@H](O[C@H]2[C@H](O)[C@@H](O)[C@@H](O)O[C@@H]2CO)[C@H](O)[C@@H](O)[C@H]1O [α-D-Lactose] | – | no | – | – |
| CC(=O)CC(=O)O [Acetoacetic Acid] | no | yes | – | can metabolize |
| O=C(O)[C@@H](O)[C@@H](O)[C@H](O)[C@@H](O)C(=O)O [D-Saccharic Acid] | no | no | – | – |
| OC[C@H]1O[C@@H]2O[C@H]3[C@H](O)[C@@H](O)[C@@H](O[C@H]4[C@H](O)[C@@H](O)[C@@H](O[C@H]5[C@H](O)[C@@H](O)[C@@H](O[C@H]6[C@H](O)[C@@H](O)[C@@H](O[C@H]7[C@H](O)[C@@H](O)[C@@H](O[C@H]8[C@H](O)[C@@H](O)[C@@H](O[C@H]9[C@H](O)[C@@H](O)[C@@H](O[C@H]1[C@H](O)[C@H]2O)O[C@@H]9CO)O[C@@H]8CO)O[C@@H]7CO)O[C@@H]6CO)O[C@@H]5CO)O[C@@H]4CO)O[C@@H]3CO [γ-Cyclodextrin] | – | no | no | – |
| O=C(O)CC(=O)O [Malonic Acid] | – | no | – | – |
| CC(=O)O [Acetic Acid] | – | no | – | – |
| C[C@H](O)C(=O)O [L-Lactic Acid] | – | yes | no | can metabolize |
| CCCCCCCCCC(=O)O [Capric Acid] | no | no | – | – |
| OC[C@H]1O[C@H](OC[C@H]2OC(O)(CO)[C@@H](O)[C@@H]2O)[C@H](O)[C@@H](O)[C@@H]1O (stereo partly drawn) [Palatinose] | – | yes | no | can metabolize |
| COC1OC(CO)C(O)C(O)C1O [α-Methyl-D-Mannoside] | – | no | no | – |
| CCC(=O)C(=O)O [α-Keto-Butyric Acid] | – | no | no | – |
| OC[C@H](O)C(O)[C@@H](O)CO [L-Arabitol] | – | no | no | – |
| O[C@H]1[C@H](O)[C@@H](O)[C@H](O)[C@@H](O)[C@H]1O [m-Inositol] | – | yes | no | can metabolize |
| CC(O)CO (stereo not drawn) [1,2-Propanediol] | – | yes | no | can metabolize |
| NCC(O)c1ccc(O)cc1 (racemic) [D,L-Octopamine] | – | no | no | – |
| Laminarin | no | – | – | – |
| C/C=C/C=C/C(=O)O [Sorbic Acid] | no | no | – | – |
| O=C(O)CCC(=O)O [Succinic Acid] | no | no | – | – |
